Data from patent publication US7432276B2, “ABCA1 elevating compounds” (CV Therapeutics, Inc., priority 2005, dated 2008).

test system: ABCA1 mRNA; test: ABCA1 mRNA induction in THP-1 cells, QuantiGene branched DNA assay; type: cell-based; settings: 10 μM test compound, 18-20 hours
Description: Modulation of expression of ABCA1 mRNA levels by the compounds of the invention was determined in the following assays.
Induction of ABC1 in THP-1 cells, was measured using QuantiGene® branched DNA assay as per manufacturer's instructions. Cultures of THP-1 were grown to subconfluence in DMEM/10% FBS before replacement with DMEM/BSA and 10 and 3 μM concentrations of the test compounds in DMSO for 18-20 hours. After treatment of cells with compounds, the cells were lysed with lysis buffer at 37° C. for 20 minutes. The cell lysate and ABCA1 specific probe (Genospectra, Inc., Fremont, Calif.) mix were added to the 96 well capture plate and hybridized at 53° C. for 16-18 hours. The signal was amplified using the amplifier and label probes provided with the QuantiGene® assay followed by addition of a luminescent alkaline phosphatase substrate, dioxitane. Luminescence was quantified in Victor V plate reader.
Step 1 • Cells are lysed to release mRNA in the presence of target probes. Target mRNA from lysed cells was then captured by hybridization and transferred to the Capture Plate.
Step 2 • Signal amplification was performed by hybridization of the bDNA Amplifier and Label Probe.
Step 3 • Addition of chemiluminescence substrate yielded a QuantiGene® signal proportional to the amount of mRNA present in the sample.
Table 1 presents the relative fold increase in ABCA1 expression over DMSO for various compounds of the invention when tested at a concentration of […].

| Compound | ABCA1 Induction Fold Increase over DMSO Vehicle |
| --- | --- |
| COc1cccc2c1OC[C@@H]1[C@@H]2Nc2ccc(C(C)C)cc2C1(C)C [Number 47, (12aS,6aS)-4-methoxy-7,7-dimethyl-9-(methylethyl)-7,12,12a,6a-tetrahydrochromano[4,3-b]quinoline] | 3.6 FOLD INCREASE |
| CNS(=O)(=O)Cc1ccc2c(c1)C(C)(C)C1COc3c(OC)cccc3C1N2 (stereo not shown) [Number 59, {[(4-methoxy-7,7-dimethyl(7,12,12a,6a-tetrahydrochromano[4,3-b]quinolin-9-yl))methyl]sulfonyl}methylamine] | 6.1 FOLD INCREASE |
| COc1cccc2c1[C@H]1Nc3ccc(N4CCS(=O)(=O)CC4)cc3C(C)(C)[C@H]1CO2 [Number 72, 4-((12aS,6aR)-1-methoxy-7,7-dimethyl-7,12,12a,6a-tetrahydrochromano[4,3-b]quinolin-9-yl)-1,4-thiazaperhydroine-1,1-dione] | 8.4 FOLD INCREASE |
| CC1(C)c2cc(C(O)(C(F)(F)F)C(F)(F)F)ccc2NC2c3cc(OC(F)(F)F)ccc3OCC21 (stereo not shown) [Number 8, 2-[7,7-dimethyl-2-(trifluoromethoxy)(7,12,12a,6a-tetrahydrochromano[4,3-b]quinolin-9-yl)]-1,1,1,3,3,3-hexafluoropropan-2-ol] | 3.0 FOLD INCREASE |
| CC(C)=CCOC(=O)c1ccc2c(c1)OCC1C2Nc2ccc(C(O)(C(F)(F)F)C(F)(F)F)cc2C1(C)C (stereo not shown) [Number 12, 3-methylbut-2-enyl 7,7-dimethyl-9-[2,2,2-trifluoro-1-hydroxy-1-(trifluoromethyl)ethyl]-7,12,12a,6a-tetrahydrochromano[4,3-b]quinoline-3-carboxylate] | 4.6 FOLD INCREASE |
| COc1cccc2c1OCC1C2Nc2ccc(-c3nnn[nH]3)cc2C1(C)C (stereo not shown) [Number 19, 4-methoxy-7,7-dimethyl-9-(1,2,3,4-tetraazol-5-yl)-7,12,12a,6a-tetrahydrochromano[4,3-b]quinoline] | 5.6 FOLD INCREASE |
| COc1cccc2c1OC[C@@H]1[C@H]2Nc2ccc(F)cc2C1(C)C [Number 48, (6aS,12aR)-9-fluoro-4-methoxy-7,7-dimethyl-7,12,12a,6a-tetrahydrochromano[4,3-b]quinoline] | 3.7 FOLD INCREASE |
| C#Cc1ccc2c(c1)C(C)(C)[C@H]1COc3cccc(OC)c3[C@H]1N2 [Number 95, (12aS,6aR)-9-ethynyl-1-methoxy-7,7-dimethyl-7,12,12a,6a-tetrahydrochromano[4,3-b]quinoline] | 4.3 FOLD INCREASE |
| COc1ccc(-c2ccc3c(c2)C(C)(C)[C@H]2COc4cccc(OC)c4[C@H]2N3)cc1 [Number 112, 1-((12aS,6aR)-1-methoxy-7,7-dimethyl(7,12,12a,6a-tetrahydrochromano[4,3-b]quinolin-9-yl))-4-methoxybenzene] | 1.7 FOLD INCREASE |
| COc1cccc2c1[C@H]1Nc3ccc(Br)cc3C(C)(C)[C@H]1CO2 [Number 85, (12aS,6aR)-9-bromo-1-methoxy-7,7-dimethyl-7,12,12a,6a-tetrahydrochromano[4,3-b]quinoline] | 8.0 FOLD INCREASE |
| COc1ccc(Br)c2c1OCC1C2Nc2ccc(C(N)=O)cc2C1(C)C (stereo not shown) [Number 81, 1-bromo-4-methoxy-7,7-dimethyl-7,12,12a,6a-tetrahydrochromano[4,3-b]quinoline-9-carboxamide] | 1.9 FOLD INCREASE |
| COc1cccc2c1[C@H]1Nc3ccc(-c4csnn4)cc3C(C)(C)[C@H]1CO2 [Number 73, (12aS,6aR)-1-methoxy-7,7-dimethyl-9-(1,2,3-thiadiazol-4-yl)-7,12,12a,6a-tetrahydrochromano[4,3-b]quinoline] | 8.0 FOLD INCREASE |
| CCOP(=O)(Cc1ccc2c(c1)C(C)(C)C1COc3c(OC)cc(Cl)cc3C1N2)OCC (stereo not shown) [Number 91, [(2-chloro-4-methoxy-7,7-dimethyl(7,12,12a,6a-tetrahydrochromano[4,3-b]quinolin-9-yl))methyl]diethoxyphosphino-1-one] | 6.2 FOLD INCREASE |
| COc1cccc2c1OC[C@@H]1[C@H]2Nc2ccc(N3CCS(=O)(=O)CC3)cc2C1(C)C [Number 20, 4-((6aS,12aR)-4-methoxy-7,7-dimethyl-7,12,12a,6a-tetrahydrochromano[4,3-b]quinolin-9-yl)-1,4-thiazaperhydroine-1,1-dione] | 6.5 FOLD INCREASE |
| Cc1cccc2c1OCC1C2Nc2ccc(C(O)(C(F)(F)F)C(F)(F)F)cc2C1(C)C (stereo not shown) [Number 18, 1,1,1,3,3,3-hexafluoro-2-(4,7,7-trimethyl(7,12,12a,6a-tetrahydrochromano[4,3-b]quinolin-9-yl))propan-2-ol] | 5.3 FOLD INCREASE |

same assay, conditions: Homo sapiens, 10 μM test compound, 18-20 hours, read-out: ABCA1 Induction Fold Increase over DMSO Vehicle

| Compound | fold induction at 10 µM |
| --- | --- |
| CCOC(=O)CN1c2ccccc2C(C)(C)[C@H]2COc3cccc(OC)c3[C@H]21 [Number 157, ethyl 2-((6aR,12aS)-6a,7-dihydro-1-methoxy-7,7-dimethyl-6H-chromeno[4,3-b]quinolin-12(12aH)-yl)acetate] | 3.3 |
| COC(=O)CCN1c2ccccc2C(C)(C)[C@H]2COc3cccc(OC)c3[C@@H]21 [Number 171, methyl 3-((6aR,12aR)-6a,7-dihydro-1-methoxy-7,7-dimethyl-6H-chromeno[4,3-b]quinolin-12(12aH)-yl)propanoate] | 2.2 |
| COC(=O)CCN1c2ccccc2C(C)(C)[C@@H]2COc3cccc(OC)c3[C@@H]21 [Number 170, methyl 3-((6aS,12aR)-6a,7-dihydro-1-methoxy-7,7-dimethyl-6H-chromeno[4,3-b]quinolin-12(12aH)-yl)propanoate] | 2.3 |
| CCS(=O)(=O)N1CCN(C(=O)c2ccc3c(c2)C(C)(C)[C@@H]2COc4c(F)cccc4[C@H]2N3)CC1 [Number 139, ((6aS,12aS)-4-fluoro-6a,7,12,12a-tetrahydro-7,7-dimethyl-6H-chromeno[4,3-b]quinolin-9-yl)(4-ethanesulfonylpiperazin-1-yl)methanone] | 2.8 |
| COC(=O)c1ccc2c(c1)C(C)(C)[C@H]1COc3c(OC)cc(-c4c(C)noc4C)cc3[C@H]1N2 (racemic) [Number 162, (6aR,12aS)-methyl 6a,7,12,12a-tetrahydro-4-methoxy-7,7-dimethyl-2-(3,5-dimethylisoxazol-4-yl)-6H-chromeno[4,3-b]quinoline-9-carboxylate] | 7.7 |
| COc1cc(-c2cn[nH]c2)cc2c1OC[C@@H]1[C@@H]2Nc2ccc(-c3cnco3)cc2C1(C)C [Number 160, (6aS,12aS)-6a,7,12,12a-tetrahydro-4-methoxy-7,7-dimethyl-9-(oxazol-5-yl)-2-(1H-pyrazol-4-yl)-6H-chromeno[4,3-b]quinoline] | 4.7 |
| CCOP(=O)(Cc1ccc2c(c1)C(C)(C)[C@H]1COc3c(OC)cc(-c4cn[nH]c4)cc3[C@H]1N2)OCC [Number 181, diethyl((6aR,12aS)-6a,7,12,12a-tetrahydro-4-methoxy-7,7-dimethyl-2-(1H-pyrazol-4-yl)-6H-chromeno[4,3-b]quinolin-9-yl)methylphosphonate] | 4.9 |
